Measured values from article PMC7801736 (ACS infectious diseases, 2019).
In brackets after ≈: the same amount, converted by molar mass. Where two headings read alike, the source gives them in different places.

Experiments:
[1] = test system: M. tuberculosis strain fgd1::tn; assay: microbe, parasite or virus in culture; type: cell-based; details: for MIC: Mycobacterium tuberculosis, read-out: MIC (µM) fgd1::tn; for MIC shift, fgd1::tn strain: fgd1::tn vs H37Rv
[2] = test system: M. tuberculosis strain ddn::tn; assay: microbe, parasite or virus in culture; type: cell-based; details: Mycobacterium tuberculosis, read-out: MIC (µM) ddn::tn
M. tuberculosis fgd1::tn [3] = details: 20 µM JSF-2164
[4] = target: purified M. tuberculosis InhA (Mycobacterium tuberculosis, UniProt P9WGR1); assay: biochemical
M. tuberculosis H37Rv [5] = details: for time of treatment after which intrabacterial metabolite was detectable: H37Rv, 20 µM JSF-2164
InhA = details: cited from earlier work
[6] = test system: M. tuberculosis fatty acid biosynthesis; type: cell-based, Mycobacterium tuberculosis
M. tuberculosis H37Rv [7] = assay: Griess assay for NO· quantification, H37Rv; type: cell-based, Mycobacterium tuberculosis; details: for NO· production (supernatant nitrite concentration), 20 µM compound / NO· production (supernatant nitrite concentration), 100 µM compound: 2 days
M. tuberculosis fgd1::tn [8] = assay: Griess assay for NO· quantification, fgd1::tn; type: cell-based, Mycobacterium tuberculosis; details: F420H2 cofactor deficiency; 20 or 100 µM
in vitro = type: cell-based; details: African green monkey
M. tuberculosis H37Rv [9] = type: cell-based, Mycobacterium tuberculosis
[10] = test system: M. tuberculosis streptomycin-sensitive (ss18b) strain; type: cell-based, Mycobacterium tuberculosis; details: streptomycin-starved nonreplicating model; 7 days treatment
[11] = read-out: % InhA inhibition at 50 µM with 1% CMC Tween-20, 50 µM compound, 1% CMC Tween-20

Chain of purified M. tuberculosis InhA (P9WGR1 whole entry, looked up): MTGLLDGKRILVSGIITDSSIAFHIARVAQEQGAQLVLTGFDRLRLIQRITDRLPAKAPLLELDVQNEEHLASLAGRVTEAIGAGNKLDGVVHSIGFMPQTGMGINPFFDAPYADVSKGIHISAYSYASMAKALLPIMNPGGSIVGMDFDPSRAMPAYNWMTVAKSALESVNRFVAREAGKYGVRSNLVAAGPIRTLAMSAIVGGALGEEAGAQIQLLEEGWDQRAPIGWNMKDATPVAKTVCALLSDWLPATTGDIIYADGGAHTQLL

Row | SMILES | MIC [1] [µM] | MIC [2] [µM] | time of treatment after which intrabacterial metabolite was discernible (M. tuberculosis fgd1::tn [3]) [h] | inhibition at 50 µM [4, 11] [%] | time of treatment after which intrabacterial metabolite was detectable (M. tuberculosis H37Rv [5]) [min] | MIC shift, fgd1::tn strain [1] [fold] | NO· production (supernatant nitrite concentration), 20 µM compound (M. tuberculosis H37Rv [7]; 20 µM exposure) [µM] | NO· production (supernatant nitrite concentration), 100 µM compound (M. tuberculosis H37Rv [7]; 100 µM exposure) [µM] | NO· production in fgd1::tn strain (M. tuberculosis fgd1::tn [8]) | other results
1 | NNC(=O)c1ccncc1 [isoniazid, reference compound] | 0.078 (≈ 0.0107 µg/mL) | 0.078 (≈ 0.0107 µg/mL) |  |  |  |  |  |  |  | 
2 | COc1cccc(Nc2ccc3nonc3c2N)c1 [JSF-3617, N5-(3-methoxyphenyl)benzo[c][1,2,5]oxadiazole-4,5-diamine] | 125 (≈ 32 µg/mL) | 250 (≈ 64.1 µg/mL) | 4 | 77 ± 0.74 | 30 |  |  |  |  | 
3 | COc1cccc(Nc2ccc(N)c3nonc23)c1 [JSF-3616, N4-(3-methoxyphenyl)-benzo[c][1,2,5]oxadiazole-4,7-diamine] | 32 (≈ 8.2 µg/mL) | 32 (≈ 8.2 µg/mL) | 4 | 46 ± 2.9 | 30 |  |  |  |  | 
4 | CCCCCCc1ccc(Oc2ccccc2C)c(O)c1 [PT70] |  |  |  |  |  |  |  |  |  | Ki (InhA): 0.0078 µM; residence time (InhA): 24 min
5 | COc1cccc(Nc2ccc([N+](=O)[O-])c3nonc23)c1 [JSF-2164, N-(3-methoxyphenyl)-7-nitrobenzo[c][1,2,5]oxadiazol-4-amine] | > 200 | 8 (≈ 2.29 µg/mL) |  | 44 ± 1 |  | > 20 | 0.84 | 6.7 | abolished | effect on MAMEs and FAMEs (TLC) [6]: did not exhibit a pattern similar to that for INH; IC50 versus purified InhA relative to MIC against the H37Rv strain ([4]; IC50 larger than MIC): ca. 5 fold; IC50 ([4]; InhA IC50 (µM), without Tween-20, mean ± standard error): 51 µM; IC50 ([4]; InhA IC50 with Tween-20, Tween-20 at 1% of its CMC in enzymatic buffer): 65 ± 16 µM; inhibition at 50 µM ([4]; read-out: InhA Inhibition at 50 µM Cmpd, 50 µM compound, commercial material, mean ± standard error): ≥ 50%; inhibition at 50 µM ([4]; read-out: InhA inhibition at 50 µM compound, synthetic material, 50 µM compound, […]): 44%; time at which intrabacterial compound was degraded to a negligible level (M. tuberculosis H37Rv [5]; Mycobacterium tuberculosis): ≥ 4 h; CC50 (in vitro): 44 to 87 µM; bactericidal classification (MBC within 4-fold of MIC) (M. tuberculosis H37Rv [9]): not formally bactericidal; reduction in M. tuberculosis colony-forming units/mL (M. tuberculosis H37Rv [9]; 16× MIC, over 7 days, H37Rv): ca. 1 log10; in vitro efficacy versus ss18b strain [10]: exhibited in vitro efficacy
6 | O=[N+]([O-])c1cn2c(n1)OC[C@@H](OCc1ccc(OC(F)(F)F)cc1)C2 [pretomanid] |  |  |  |  |  | > 500 | 9.8 | 17 | abolished | NO· release (ratio of nitrite concentration to compound dose), 20 µM compound (M. tuberculosis H37Rv [7]; 20 µM exposure, initial 2 days): 49%; NO· release (ratio of nitrite concentration to compound dose), 100 µM compound (M. tuberculosis H37Rv [7]; 100 µM exposure, initial 2 days): 17%
